The values below come from ChEMBL document CHEMBL1121904, “Potential antitumor agents. 35. Quantitative relationships between antitumor (L1210) potency and DNA binding for 4'-(9-acridinylamino)methanesulfon-m-anisidide analogues” (J Med Chem, 1981).

One data set concerns Calf thymus DNA. The conditions noted are these: Bos taurus.

Description for Calf thymus DNA: Association constant measured for binding towards poly[d(A-T)] of DNA in calf thymus
Description for physchem: Ionisation constant (pKa)

`COc1cc(NS(C)(=O)=O)ccc1Nc1c2ccccc2nc2ccc(F)cc12` registered a Log K in the data set on Calf thymus DNA of 5.28. Also, in “physchem”, the pKa came out at 6.71.

Consider `COc1cc(NS(C)(=O)=O)ccc1Nc1c2ccccc2nc2c(Br)cccc12`, for which, in the data set with Calf thymus DNA, the Log K came out at 5.57. In addition, the pKa in the data set “physchem” was 6.09.

As for `CNC(=O)COc1cccc2c(Nc3ccc(NS(C)(=O)=O)cc3OC)c3ccccc3nc12`, in the data set on Calf thymus DNA, the Log K worked out at 5.8. The pKa in “physchem” came out at 7.35.

For `COc1cc(NS(C)(=O)=O)ccc1Nc1c2ccccc2nc2c(C(=O)N3CCOCC3)cccc12`, in the data set with Calf thymus DNA, the Log K is 4.96. Besides, the pKa in “physchem” was 6.03.

Turning to `COc1cc(NS(C)(=O)=O)ccc1Nc1c2ccccc2nc2c(C(=O)NCC(C)O)cccc12` (stereo not given), in the data set with Calf thymus DNA, the Log K is 5.34. The pKa in the data set “physchem” was determined as 6.2.

As to `COc1cc(NS(C)(=O)=O)ccc1Nc1c2ccccc2nc2c(C(=O)N(C)C)cccc12`, in the data set on Calf thymus DNA, the Log K was found to be 5.04.

In the case of `COc1cc(NS(C)(=O)=O)ccc1Nc1c2ccccc2nc2cc(C#N)ccc12`, in the data set with Calf thymus DNA, the Log K amounted to 5.65. Besides, the pKa in “physchem” is 5.94.

`COc1cc(NS(C)(=O)=O)ccc1Nc1c2ccccc2nc2cc(I)ccc12` displayed a Log K with Calf thymus DNA of 6.35. Also, the pKa in “physchem” was 6.77.

As to `COc1cc(NS(C)(=O)=O)ccc1Nc1c2ccccc2nc2ccc(N)cc12`, the Log K with Calf thymus DNA was found to be 5.95. In “physchem”, the pKa worked out at 7.37.

Turning to `COc1ccc2c(Nc3ccc(NS(C)(=O)=O)cc3OC)c3ccccc3nc2c1`, in the data set on Calf thymus DNA, the Log K worked out at 5.83. This compound also came in with a pKa in the data set “physchem” of 7.81.

`COc1cc(NS(C)(=O)=O)ccc1Nc1c2ccccc2nc2c(C(=O)NCC(N)=O)cccc12` registered a Log K in the data set with Calf thymus DNA of 5.39.

As to `CCCCNC(=O)c1cccc2c(Nc3ccc(NS(C)(=O)=O)cc3OC)c3ccccc3nc12`, in the data set on Calf thymus DNA, the Log K turned out to be 5.4.

As to `COc1cc(NS(C)(=O)=O)ccc1Nc1c2ccccc2nc2c(OCC(O)CO)cccc12` (stereo not given), the Log K in the data set with Calf thymus DNA was 5.9. In the data set “physchem”, this compound yielded a pKa of 7.3.

On to `COc1cc(NS(C)(=O)=O)ccc1Nc1c2ccccc2nc2c(OC)cccc12`, for which the Log K with Calf thymus DNA stood at 5.94. Besides, the pKa in “physchem” was 7.39.

Turning to `COc1cc(NS(C)(=O)=O)ccc1Nc1c2ccccc2nc2c([N+](=O)[O-])cccc12`, the Log K in the data set on Calf thymus DNA amounted to 5.2. Moreover, the pKa in the data set “physchem” amounted to 5.05.

Regarding `COc1cc(NS(C)(=O)=O)ccc1Nc1c2ccccc2nc2ccc(C)cc12`, the Log K with Calf thymus DNA was 5.35. Moreover, the pKa in “physchem” is 7.45.

With `COc1cc(NS(C)(=O)=O)ccc1Nc1c2ccccc2nc2c(C(=O)NCC(O)CO)cccc12` (stereo not given), the Log K in the data set on Calf thymus DNA was found to be 5.26.

Compound `COc1cc(NS(C)(=O)=O)ccc1Nc1c2ccccc2nc2c(C#N)cccc12` gave a Log K in the data set on Calf thymus DNA of 5.01. The pKa in the data set “physchem” is 4.87.

`COc1cc(NS(C)(=O)=O)ccc1Nc1c2ccccc2nc2cc(Br)ccc12`: the Log K in the data set with Calf thymus DNA turned out to be 6.29. In the data set “physchem”, this compound returned a pKa of 6.84.

The compound `COc1cc(NS(C)(=O)=O)ccc1Nc1c2ccccc2nc2ccc(I)cc12` registered a Log K with Calf thymus DNA of 5.7. Further, the pKa in the data set “physchem” is 6.6.

In turn, `COC(=O)Nc1ccc2c(Nc3ccc(NS(C)(=O)=O)cc3OC)c3ccccc3nc2c1` gave a Log K with Calf thymus DNA of 6.37. In the data set “physchem”, this compound displayed a pKa of 7.77.

The compound `COc1cc(NS(C)(=O)=O)ccc1Nc1c2ccccc2nc2cnccc12` came in with a Log K in the data set on Calf thymus DNA of 5.09. The pKa in “physchem” came to 5.53.

Turning to `COc1cc(NS(C)(=O)=O)ccc1Nc1c2ccccc2nc2c(OCCCC(N)=O)cccc12`, the Log K in the data set on Calf thymus DNA is 5.74. The compound further came in with a pKa in “physchem” of 7.36.

Take `COc1cc(NS(C)(=O)=O)ccc1Nc1c2ccccc2nc2cc(C(F)(F)F)ccc12`: the Log K in the data set with Calf thymus DNA was 5.24. In the data set “physchem”, this compound had a pKa of 6.24.

Take `COc1cc(NS(C)(=O)=O)ccc1Nc1c2ccccc2nc2cc(F)ccc12`: the Log K in the data set on Calf thymus DNA came out at 5.54. The pKa in the data set “physchem” stood at 7.05.

In the data set with Calf thymus DNA, `COc1cc(NS(C)(=O)=O)ccc1Nc1c2ccccc2nc2cc(N)ccc12` registered a Log K of 6.21. Also, the pKa in “physchem” came to 9.92.

In turn, `COc1cc(NS(C)(=O)=O)ccc1Nc1c2ccccc2nc2ncccc12` displayed a Log K with Calf thymus DNA of 5.27.

In the data set with Calf thymus DNA, `COc1cc(NS(C)(=O)=O)ccc1Nc1c2ccccc2nc2c(C)cccc12` yielded a Log K of 6.03. In the data set “physchem”, this compound had a pKa of 7.39.

Compound `COc1cc(NS(C)(=O)=O)ccc1Nc1c2ccccc2nc2cc(C)ccc12` returned a Log K in the data set on Calf thymus DNA of 5.95. In “physchem”, this compound had a pKa of 7.7.

For `COc1cc(NS(C)(=O)=O)ccc1Nc1c2ccccc2nc2c(OCCO)cccc12`, the Log K in the data set with Calf thymus DNA turned out to be 5.74. The same compound displayed a pKa in “physchem” of 7.36.

Consider `CNC(=O)c1cccc2c(Nc3ccc(NS(C)(=O)=O)cc3OC)c3ccccc3nc12`, for which, in the data set on Calf thymus DNA, the Log K turned out to be 5.54.

With `COc1cc(NS(C)(=O)=O)ccc1Nc1c2ccccc2nc2c(F)cccc12`, in the data set with Calf thymus DNA, the Log K stood at 5.65. For the same compound, the pKa in the data set “physchem” was 6.33.

`COc1cc(NS(C)(=O)=O)ccc1Nc1c2ccccc2nc2c(C(N)=O)cccc12`: the Log K in the data set on Calf thymus DNA stood at 5.47.

For `COc1cc(NS(C)(=O)=O)ccc1Nc1c2ccccc2nc2cc(NC(C)=O)ccc12`, in the data set on Calf thymus DNA, the Log K turned out to be 6.24.

In turn, `COc1cc(NS(C)(=O)=O)ccc1Nc1c2ccccc2nc2cc([N+](=O)[O-])ccc12` registered a Log K in the data set on Calf thymus DNA of 5.65.

`COc1cc(NS(C)(=O)=O)ccc1Nc1c2ccccc2nc2c(Cl)cccc12`: the Log K in the data set on Calf thymus DNA amounted to 5.76. Moreover, in “physchem”, the pKa was 6.11.

Turning to `C=NC(=O)CCc1cccc2c(Nc3ccc(NS(C)(=O)=O)cc3OC)c3ccccc3nc12`, in the data set with Calf thymus DNA, the Log K came out at 5.65. The same compound displayed a pKa in the data set “physchem” of 7.15.

As to `CNc1ccc2c(Nc3ccc(NS(C)(=O)=O)cc3OC)c3ccccc3nc2c1`, the Log K with Calf thymus DNA was 6.17. The same compound registered a pKa in “physchem” of 10.1.

Turning to `COc1cc(NS(C)(=O)=O)ccc1Nc1c2ccccc2nc2cc(Cl)ccc12`, the Log K in the data set with Calf thymus DNA turned out to be 6.06. The compound further registered a pKa in the data set “physchem” of 6.84.

As to `CCc1ccc2c(Nc3ccc(NS(C)(=O)=O)cc3OC)c3ccccc3nc2c1`, in the data set with Calf thymus DNA, the Log K was 5.66. The compound further displayed a pKa in “physchem” of 7.65.

For `COc1cc(NS(C)(=O)=O)ccc1Nc1c2ccccc2nc2c(C(=O)NCCCO)cccc12`, the Log K in the data set on Calf thymus DNA was 5.4. The pKa in the data set “physchem” was 6.3.

As for `COc1cc(NS(C)(=O)=O)ccc1Nc1c2ccccc2nc2ccc(C(C)C)cc12`, in the data set on Calf thymus DNA, the Log K was 5.39. In the data set “physchem”, this compound gave a pKa of 7.4.

Consider `COc1cc(NS(C)(=O)=O)ccc1Nc1c2ccccc2nc2cc(C(C)C)ccc12`, for which the Log K in the data set on Calf thymus DNA came to 5.46. Besides, the pKa in “physchem” was 7.66.

On to `COc1cc(NS(C)(=O)=O)ccc1Nc1c2ccccc2nc2c(-c3ccccc3)cccc12`, for which, in the data set with Calf thymus DNA, the Log K was found to be 5.6. In “physchem”, the pKa amounted to 7.02.

For the compound `COc1cc(NS(C)(=O)=O)ccc1Nc1c2ccccc2nc2cc(C(N)=O)ccc12`, the Log K in the data set with Calf thymus DNA was found to be 5.66. The compound also returned a pKa in “physchem” of 6.66.

Take `CCOc1cccc2c(Nc3ccc(NS(C)(=O)=O)cc3OC)c3ccccc3nc12`: the Log K in the data set with Calf thymus DNA is 5.77. In addition, the pKa in “physchem” worked out at 7.37.

In the data set on Calf thymus DNA, `COc1cc(NS(C)(=O)=O)ccc1Nc1c2ccccc2nc2c(C(=O)NCCO)cccc12` displayed a Log K of 5.42. This compound also gave a pKa in the data set “physchem” of 6.27.

The pKa is the negative logarithm of the acid dissociation constant. A high value points to a group that holds its proton tightly.
